Measurements from US10391113B2, “Compatible composition containing chinese medicine cichorium glandulosum boiss et hout as lipid-lowering active ingredient” (Nanjing Ruiying Runze Biopharmaceutical Technology Co., Inc., priority 2014, dated 2019).

How the values were obtained:
rat primary hepatocyte = assay: Influence on the lipid droplet content of the rat primary hepatocyte (FFA hyperlipidemia model, nile red, flow detection); format: cell-based, SD rat; details: administration dose 20 μM total molar concentration; 1 mmol/L FFA; 24 hours; means ± s.d., n = 3; versus model group
Description: The hepatocyte is taken out from the SD rat liver by using Seglen two steps in situ circulatory perfusion method, filtered through 100-mesh sieve, centrifugated for 3 min at 500 rpm and 4° C., and the supernatant is discarded, and the hepatocyte is washed three times in the same way. The number of living cells and the cell survival rate is obtained by counting the cell, and the cells are added in the plate at 1.0*10^6 cell/mL medium. The cells are cultured for 24 hours, then the supernatant is discarded, and the cells are washed with PBS three times. […] Other groups are adjusted to a final volume of 2 mL with Williams'E medium without serum, and 24 hours after administration, washed with PBS in 37° C. three times, digested by the pancreatin, centrifugated, the supernatant is discarded, the cells are resuspended with PBS, and the final concentration is adjusted to 1 μg/mL by adding nile red dye. […] Using D-Optimal experimental design method in the mixture experimental design, calculation is carried out by using response surface analysis method and using Design expert8.05b software. Choosing D-optimal in the Mixture option, analysis is carried out by entering compatible ratio of the compatible groups and the test results in Table 2.

HepG2 cell = assay: Lipid droplet content of free fat acid (FFA) induced HepG2 cell (nile red, flow detection); format: cell-based; details: 24 hours, geometric median of fluorescence intensity, means ± s.d., n = 3, model group 222.64 ± 8.34
Description: Experiment method: the HepG2 cells in the logarithmic growth phase are taken having a growth density of 80%, and inoculated into 6-well plate at 1×10^5 per well. After culturing cells for 24 hours, the supernatant is discarded, and the cells are washed with PBS three times. […] Except for the blank control group, all of the other groups are added FFA having a final concentration of 1 mmol/L, and the remaining volume is completed to 2 mL with the DMEM medium containing 10% fetal bovine serum, 24 hours after administration, washed with PBS in 37° C. three times, digested by the pancreatin, centrifugated, the supernatant is discarded, the cells are resuspended with PBS, and the final concentration is adjusted to 1 μg/mL by adding nile red dye.

[1] = system: high fat diet induced rat lipid metabolism disorder model; assay: High fat diet induced rat lipid metabolism disorder model; format: in vivo, SD rat; details: 0.1 g/kg by gavage once a day, high fat feedstuff, after the eighth week
Description: Experiment method: 90 SD rats are normally fed for 1 week, the normal group of 10 rats are fed common feedstuff, and others are fed high fat feedstuff (basic feedstuff 88%, lard 10% and cholesterol 2%). 4 weeks later, the rats fed high fat feedstuff are randomly divided into 5 groups, each group of 10. […] The rats in the bezafibrate group are fed bezafibrate 100 mg/kg at the same time as the high fat feedstuff feeding respectively. The tested sample groups are given 100 mg/kg by gavage respectively at the same time as the high fat feedstuff feeding, once a day. The experiment animals can freely drink water and take food, and are fed separately in cages in light and dark for 12 hours, respectively, in a SPF grade animal lab under 25±2° C. After the eighth week of the experiment, the rats are fasted for 16 hours, collected blood from arteria cruralis, sacrificed by dislocating the cervical vertebra, taking out the liver, and preparing serum and liver tissue homogenate in conventional method. The triglyceride (TG), total cholesterol (TC), high density lipoprotein (HDL-C), low density lipoprotein (LDL-C), glutamic-pyruvic transaminase (ALT) and glutamic-oxalacetic transaminase (AST) content in the serum and liver is detected.

[2] = administration dose 20 μM, 1 mM FFA

O=C(O)[C@H]1O[C@@H](Oc2c(-c3ccc(O)c(O)c3)oc3cc(O)cc(O)c3c2=O)[C@H](O)[C@@H](O)[C@@H]1O [quercetin-3-O-β-D-glucuronide]
decrease of the lipid droplet content (%) (rat primary hepatocyte): 8.07 ± 0.92%
lipid droplet content (HepG2 cell; [2]): 153.38 ± 2.88

CC(C)(Oc1ccc(CCNC(=O)c2ccc(Cl)cc2)cc1)C(=O)O [bezafibrate]
Weight [1]: 433.15 ± 24.53 g
ALT (U/L) ([1]; listed under liver): 107.9 ± 14.12 U/L
AST (U/L) ([1]; listed under liver): 217.8 ± 33.93 U/L
liver TC (mg/g liver) ([1]; liver): 33 ± 12.23 mg/g liver
liver TG (mg/g liver) ([1]; liver): 186 ± 37.92 mg/g liver
serum HDL-C ([1]; serum): 1.58 ± 0.29 mmol/L
serum LDL-C ([1]; serum): 0.54 ± 0.30 mmol/L
serum TC ([1]; serum): 1.58 ± 0.17 mmol/L
serum TG ([1]; serum): 0.88 ± 0.19 mmol/L
lipid droplet content (HepG2 cell; administration dose 100 μM): 178.84 ± 2.84

O=c1c(O)c(-c2ccc(O)c(O)c2)oc2cc(O)cc(O)c12 [quercetin]
decrease of the lipid droplet content (%) (rat primary hepatocyte): 7.01 ± 1.03%
lipid droplet content (HepG2 cell; [2]): 198.25 ± 6.04

O=c1c(O[C@@H]2O[C@H](CO)[C@@H](O)[C@H](O)[C@H]2O)c(-c2ccc(O)c(O)c2)oc2cc(O)cc(O)c12 [isoquercitrin]
decrease of the lipid droplet content (%) (rat primary hepatocyte): 7.52 ± 1.63%
lipid droplet content (HepG2 cell; [2]): 200.61 ± 8.43
